Values of other authors as cited in US10105355B2 (BASF SE, priority 2014, dated 2018).
Where two headings read alike, the source gives them in different places.

Compound: CS(=O)(=O)c1ccc(C(=O)Nc2ccc(Cl)c(-c3ccccn3)c2)c(Cl)c1 [Vismodegib, 2-Chloro-N-(4-chloro-3-pyridin-2-ylphenyl)-4-methylsulfonylbenzamide]
- estimated elimination half-life (t½) (after a single dose treatment): 12 days
- estimated elimination half-life (t½) (after continuous once-daily dosing): 4 days
- exposure linearity (single doses higher than 270 mg): not linear
